Results as given in patent US9962383B2, “Compounds, compositions and methods of agelastatin alkaloids” (Massachusetts Institute of Technology, priority 2013, dated 2018).

Assays:
[1] = tested on: IMR90; assay: 48-hour IC50 by SRB, IMR90  lung fibroblasts; type: cell-based, human; conditions: IMR90 immortalized lung fibroblasts
Description: (§1) Cells were grown in media supplemented with fetal bovine serum (FBS) and antibiotics (100 μg/mL penicillin and 100 U/mL streptomycin). […] Cells were incubated at 37° C. in a 5% CO2, 95% humidity atmosphere.
Adherent cells (HeLa, A549, BT549, and IMR90) were added into 96-well plates (5,000 cells/well for HeLa cell line; 2,000 cells/well for A549, BT549, and IMR90 cell lines) in 100 μL media and were allowed to adhere for 2-3 hours. Compounds were solubilized in DMSO as 100× stocks, added directly to the cells (100 μL final volume), and tested over a range of concentrations (1 nM to 10 μM) in triplicate (1% DMSO final) on a half-log scale. DMSO and cell-free wells served as the live and dead control, respectively. […] Briefly, media was removed from the plate, and cells were fixed by the addition of 100 μL cold 10% trichloroacetic acid in water. After incubating at 4° C. for 1 h, the plates were washed in water and allowed to dry. Sulforhordamine B was added as a 0.057% solution in 1% acetic acid (100 μL), and the plates were incubated at room temperature for 30 min, washed in 1% acetic acid, and allowed to dry. […] IC50 values were determined from three or more independent experiments using TableCurve (San Jose, Calif.).

[2] = tested on: Daudi; assay: 48-hour IC50 by MTS, Daudi Burkitt's lymphoma cells; type: cell-based, human
Description: as §1
(§2) In a 96-well plate, compounds were pre-added as DMSO stocks (1% final) in triplicate to achieve final concentrations of 1 nM to 10 μM on a half log scale. DMSO and cell-free wells served as the live and dead control, respectively. […] IC50 values were determined from three or more independent experiments using TableCurve (San Jose, Calif.).

[3] = tested on: HL-60; assay: 48-hour IC50 by MTS, HL-60 acute promyelocytic leukemia cells; type: cell-based, human
Description: as §1, §2

[4] = tested on: Human Erythrocytes; assay: Hemolysis assay using human erythrocytes; type: cell-based; conditions: hemolysis after 2 h
Description: FIG. 1. Hemolytic activity of (−)-agelastatins A-F and advanced intermediates. Compounds were tested at 333 μM and hemolysis was evaluated after 2 h. DMSO and water served as the negative and positive controls for hemolysis, respectively. Error bars represent standard deviation of the mean, n=3.
To prepare the erythrocytes, 0.1 mL of human blood was centrifuged (10,000 g, 2 min). The pellet was washed three times with saline (0.9% NaCl) via gentle resuspension and centrifugation (10,000 g, 2 min). Following the final wash, the erythrocytes were resuspended in 0.4 mL red blood cell (RBC) buffer (10 mM Na2HPO4, 150 mM NaCl, 1 mM MgCl2, pH 7.4).
DMSO stocks of compounds were added to 0.5 mL tubes in singlicate (1 μL, 3.3% DMSO final). The stocks were diluted with 19 μL RBC buffer. Positive control tubes contained DMSO in water, and negative control tubes contained DMSO in RBC buffer. A suspension of washed erythrocytes (10 μL) was added to each tube, and samples were incubated at 37° C. for 2 hours. Samples were centrifuged (10,000 g, 2 min), and the supernatant was transferred to a clear, sterile 384-well plate. The absorbance of the supernatants was measured at λ=540 nm, and percent hemolysis was calculated relative to the average absorbance values measured for the controls.

[5] = tested on: procaspase-3 and PARP-1 cleavage; assay: Western blot analysis of procaspase-3 and PARP-1 cleavage in U-937 cells; type: cell-based, human; conditions: 24 hours
Description: FIG. 2. […] Western blot analysis of procaspase-3 and PARP-1 cleavage at 24 hours in U-937 cells using β-actin as loading control. Compounds were tested at indicated concentrations and STS (10 nM); C3=caspase-3; PARP=poly(ADP-ribose) polymerase 1; PC3=procaspase-3; STS=staurosporine.

[6] = tested on: synchronized U-937 cells; assay: Cell cycle arrest in thymidine-synchronized U-937 cells; type: cell-based, human; conditions: 16 hours, PI, flow cytometry
Description: Samples were fixed, treated with an RNAse, stained with PI, and analyzed by flow cytometry. Taxol, a microtubule stabilizer, was used as a positive control. Error bars represent standard deviation of the mean, n=3. * p<0.01. PI=propidium iodide.
U-937 cells were split to 50% confluency (250,000 cells/mL) and treated with 2 mM thymidine for 10 hours. The cells were then pelleted (500 g, 3 minutes) and washed with PBS before being resuspended in thymidine-free media and allowed to recover for 13 hours. The cells were then re-blocked with 2 mM thymidine for 10 hours, and then washed with PBS as before and resuspended in media (250,000 cells/mL).
DMSO stocks of compounds were added to a 24-well plate in triplicate (0.2% DMSO final), after which 1 mL of the prepared cell suspension was added. Following a 16 h incubation, the cell suspensions were transferred to 2 mL tubes and pelleted (600 g, 3 min). The media was removed by aspiration, and the cells were fixed with 0.5 mL of ice cold 70% ethanol with vortexing. The samples were fully fixed at −20° C. for 3 hours. The samples were then pelleted (1000 g, 5 min) and the supernatant was removed via aspiration. […] Prior to reading, the samples were taken up in 150 μL of 50 μg/mL propidium iodide in PBS and transferred to flow cytometry tubes. Samples were analyzed based on whole, single cells.

[7] = tested on: blood cancer cells; assay: Activity against human blood cancer cell lines; type: cell-based
Description: Based on the surprising and exceptional potency of (−)-agelastatins A (1) and D (4) against U-937 cells relative to the other cell lines tested, five additional blood cancer cell lines were tested for their sensitivity to the agelastatin alkaloids. These cell lines spanned a variety of cancer types (CEM, acute lymphoblastic leukemia; Jurkat, acute T-cell leukemia; Daudi, Burkitt's lymphoma; HL-60, acute promyelocytic leukemia; CA46, Burkitt's lymphoma). After a 48-hour incubation, the ability of (−)-agelastatins A-F (1-6) to induce cell death was evaluated. […] The same trends in potency observed for the various agelastatins with the general cell panel (Table 3) were also observed.
In a 96-well plate, compounds were pre-added as DMSO stocks (1% final) in triplicate to achieve final concentrations of 1 nM to 10 μM on a half log scale. DMSO and cell-free wells served as the live and dead control, respectively. […] After 48 h, cell viability was assessed by adding 20 μL of a PMS/MTS solution (A. H. Cory, T. C. Owen, J. A. Barltrop, J. G. Cory, Cancer Commun., 1991, 3, 207) to each well, allowing the dye to develop at 37° C. until the live control had processed MTS, and reading the absorbance at λ=490 nm. IC50 values were determined from three or more independent experiments using TableCurve (San Jose, Calif.).

CN1C(=O)N[C@H]2[C@@H]3NC(=O)c4ccc(Br)n4[C@@H]3C[C@]21O [(−)-1, (−)-agelastatin A]
IC50 [1]: 1110 ± 350 nM | IC50 [2]: 20 ± 3 nM | IC50 [3]: 138 ± 66 nM | nonspecific hemolysis of red blood cells ([4]; compounds at 333 μM): none | concentration without affecting normal red blood cells [4]: > 333 µM | activation of procaspase-3 to active caspase-3 and cleavage of PARP-1 [5]: dose-dependent activation | G2/M cell cycle arrest [6]: dose-dependent G2/M cell cycle arrest | sensitivity of five additional blood cancer cell lines, in words ([7]; CEM, Jurkat, Daudi, HL-60, CA46, 48-hour incubation): remarkable sensitivity | IC50 ([7]; range over blood cancer cell lines, read-out: potency against blood cancer cells): 20 to 190 nM
